Source: article PMC9847679, “The anti-breast cancer stem cell properties of gold(I)-non-steroidal anti-inflammatory drug complexes” (Chemical Science, 2022)
Like-named read-outs stand apart in the source and are kept apart here.

Experiments:
[1] = system: HMLER-shEcad mammospheres; parameters: method as in PMID 26806362, PMID 31209956, PMID 28932846; conditions: read-out: Mammosphere IC50; cited from earlier work
[2] = Water-octanol partition coefficient (shake-flask, UV-vis); type: physicochemical; conditions: room temperature 24 h
Procedure: Measurement of water-octanol partition coefficient (LogP). The LogP values for 1-8 were determined using the shake-flask method and UV-vis spectroscopy. The 1-octanol used in this experiment was pre-saturated with water. An aqueous solution of 1-8 (500 μL, 100 μM) was incubated with 1-octanol (500 μL) in a 1.5 mL tube. The tube was shaken at room temperature for 24 h. The two phases were separated by centrifugation and the 1-8 content in each phase was determined by UV-vis spectroscopy. […]

[3] = system: HMLER-shEcad cells; parameters: method as in PMID 26806362, PMID 31209956, PMID 28932846; conditions: cited from earlier work
[4] = Solution stability by UV-vis and NMR spectroscopy; type: physicochemical
Procedure: The stability of 1–8 in solutions relevant for cell-based studies was determined by UV-vis spectroscopy studies. […] The DMSO- and PBS-stable complexes 1–4 (50 μM) were also deemed stable in MEGM : DMSO (1 : 1) over the course of 24 h at 37 °C (Fig. S22 ^†). Time course ^31P{^1H} and ^1H NMR spectroscopy studies were carried out to confirm the solution stability of 1–4. […] The ^1H NMR spectra for 1–3 (10 mM) remained unchanged over the same period (Fig. S26–S28 ^†). […] In the ^31P{^1H} NMR spectrum, the signal for intact 4 (at 27.05 ppm) completely disappeared after 48 h and was replaced by a signal corresponding to triphenylphosphine oxide (at 25.47 ppm) (Fig. S29 ^†). The formation of triphenylphosphine oxide was also detected in the ^1H NMR spectrum (Fig. S30 ^†). Additionally, plating of elemental gold was observed over the course of 72 h.

[5] = system: HMLER cells; assay: Monolayer cytotoxicity (MTT assay), HMLER cells; type: cell-based, human; conditions: 72 h incubation, MTT
Text: (§1) Cell Lines and Cell Culture Conditions. The human mammary epithelial HMLER and HMLER-shEcad cell lines were kindly donated by Prof. R. A. Weinberg (Whitehead Institute, MIT). The human epithelial breast MCF10A, breast adenocarcinoma MDA-MB-231 and MDA-MB-468, murine epithelial breast 4T1, and embryonic kidney HEK 293 cell lines were acquired from American Type Culture Collection (ATCC, Manassas, VA, USA).
(§2) HMLER, HMLER-shEcad, and MCF10A cells were maintained in Mammary Epithelial Cell Growth Medium (MEGM) with supplements and growth factors (BPE, hydrocortisone, hEGF, insulin, and gentamicin/amphotericin-B). MDA-MB-231, MDA-MB-468, 4T1, and HEK 293 cells were maintained in Dulbecco's Modified Eagle's Medium (DMEM) supplemented with fetal bovine serum (10 %) and penicillin/streptomycin (1 %). The cells were grown at 310 K in a humidified atmosphere containing 5% CO2.
(§3) Monolayer Cytotoxicity Studies. Exponentially growing cells were seeded at a density of approximately 5 × 10^3 cells per well in 96-well flat-bottomed microplates and allowed to attach for 24 h prior to addition of compounds. Various concentrations of the test compounds (0.0004-100 μM) were added and incubated for 72 h at 37 °C (total volume 200 μl). Stock solutions of the compounds were prepared as 10 mM DMSO solutions and diluted using cell […]
(§4) media. The final concentration of DMSO in each well was ≤1 %. After 72 h, 20 μl of MTT (4 mg mL-1 in PBS) was added to each well and the plates incubated for an additional 4 h at 37 °C. The media/MTT mixture was eliminated and DMSO (100 μl per well) was added to dissolve the formazan precipitates. The optical density was measured at 550 nm using a 96-well multiscanner autoreader. Absorbance values were normalised to (DMSO-containing) control wells and plotted as concentration of test compound versus % cell viability. IC50 values were interpolated from the resulting dose dependent curves. The reported IC50 values are the average of three independent experiments (n = 18). […]
(§5) After incubation for 16 […]
(§6) h, the fluorescence of the solutions was read at 590 nm (λex = 560 nm). Viable mammospheres reduce the amount of the oxidised TOX8 form (blue) and concurrently increase the amount of the fluorescent TOX8 intermediate (red), indicating the degree of mammosphere cytotoxicity caused by the test compound. […]
(§7) Cellular Uptake. To measure the cellular uptake of 1-3 about 1 million HMLER-shEcad cells were treated with 1-3 (0.25 μM) at 37 °C for 24 h. After incubation, the media was removed, the cells were washed with PBS (2 mL × 3) and harvested. The number of cells was counted at this stage, using a haemocytometer. This mitigates any cell death induced by 1-3 at the administered concentration and experimental cell loss. The cellular pellets were dissolved in 65% HNO3 (250 µL) overnight. A cellular pellet of HMLER-shEcad cells treated with 1 was also used to determine the gold content in the nuclear, cytoplasmic and membrane fractions. The Thermo Scientific NE-PER Nuclear and Cytoplasmic Extraction Kit was used to extract and separate the nuclear, cytoplasmic and membrane fractions. The fractions were dissolved in 65% HNO3 (250 µL final volume) overnight. All samples were diluted 17-fold with water and analysed using inductively coupled plasma mass spectrometry (ICP-MS, Thermo Scientific ICAP-Qc quadrupole ICP mass spectrometer). Gold levels are expressed as mass of Au (ng) per million cells. Results are presented as the mean of four determinations for each data point.
(§8) Intracellular ROS Assay. […]

[6] = system: HMLER-shEcad cells; assay: Monolayer cytotoxicity (MTT assay), HMLER-shEcad cells; type: cell-based, human; conditions: 72 h incubation, MTT
Text: as §1, §2, §3, §4, §5, §6, §7, §8

[7] = system: HMLER-shEcad mammospheres; assay: Mammosphere viability assay (TOX8); type: cell-based, human; conditions: 5 days incubation
Procedure: Tumorsphere Formation and Viability Assay.
in ultralow-attachment 96-well plates (Corning) and incubated in MEGM supplemented with B27 (Invitrogen), 20 ng mL-1 EGF and 4 μg mL-1 heparin (Sigma) for 5 days. […] The viability of the mammospheres was determined by addition of a resazurin-based reagent, TOX8 (Sigma). After incubation for 16 h, the fluorescence of the solutions was read at 590 nm (λex = 560 nm). Viable mammospheres reduce the amount of the oxidised TOX8 form (blue) and concurrently increase the amount of the fluorescent TOX8 intermediate (red), indicating the degree of mammosphere cytotoxicity caused by the test compound. Fluorescence values were normalised to DMSO-containing controls and plotted as concentration of test compound versus % mammospheres viability. IC50 values were interpolated from the resulting dose dependent curves. The reported IC50 values are the average of three independent experiments, each consisting of two replicates per concentration level (overall n = 6).

[8] = system: MDA-MB-231 cells; assay: Monolayer cytotoxicity (MTT assay), MDA-MB-231 cells; type: cell-based, human; conditions: 72 h incubation
Text: as §1, §2, §3
(§9) media. The final concentration of DMSO in each well was ≤1 %. […] The optical density was measured at 550 nm using a 96-well multiscanner autoreader. Absorbance values were normalised to (DMSO-containing) control wells and plotted as concentration of test compound versus % cell viability. […]
(§10) h, the fluorescence of the solutions was read at 590 nm (λex = 560 nm). […]
(§11) Cellular Uptake. […] The number of cells was counted at this stage, using a haemocytometer. […] All samples were diluted 17-fold with water and analysed using inductively coupled plasma mass spectrometry (ICP-MS, Thermo Scientific ICAP-Qc quadrupole ICP mass spectrometer). Gold levels are expressed as mass of Au (ng) per million cells. […]

[9] = system: MDA-MB-468 cells; assay: Monolayer cytotoxicity (MTT assay), MDA-MB-468 cells; type: cell-based, human; conditions: 72 h incubation
Text: as §1, §2, §3, §4
Cellular Uptake. […]

[10] = system: 4T1 cells; assay: Monolayer cytotoxicity (MTT assay), 4T1 cells; type: cell-based, murine; conditions: 72 h incubation
Text: as §1, §2, §3, §9, §10, §11

## N.N.O=C([O-])C1(C(=O)[O-])CCC1.[Pt+2] [Carboplatin, carboplatin]
[1]
  IC50: 18 ± 1 µM

## Cc1cccc(Nc2ccccc2C(=O)[O][Au][PH](c2ccccc2)(c2ccccc2)c2ccccc2)c1C [complex 7]
[2]
  LogP value: 0.83 ± 0.23

## CC[C@@H](C(=O)[C@@H](C)[C@@H](O)[C@H](C)[C@@H]1O[C@@H]([C@@H](CC)C(=O)O)CC[C@@H]1C)[C@H]1O[C@]2(C=C[C@@H](O)[C@]3(CC[C@@](C)([C@H]4CC[C@](O)(CC)[C@H](C)O4)O3)O2)[C@H](C)C[C@@H]1C [Salinomycin, salinomycin]
[3]
  IC50: 4.23 ± 0.35 µM
[1]
  IC50: 19 ± 2 µM

## O=C([O][Au][PH](c1ccccc1)(c1ccccc1)c1ccccc1)c1ccccc1O [complex 5]
[2]
  LogP value: 0.75 ± 0.01
[4]; 50 μM, 24 h, 37 °C
  stability in PBS : DMSO (1 : 1) (UV-vis): but not 5, was stable

## COc1ccc2cc([C@H](C)C(=O)[O][Au][PH](c3ccccc3)(c3ccccc3)c3ccccc3)ccc2c1 [complex 3]
[5]
  IC50: 0.183 ± 0.001 µM
[6]
  IC50: 0.063 ± 0.006 µM
[7]
  IC50: 8 ± 1 µM
[8]
  IC50: 7.77 ± 0.41 µM
[9]
  IC50: 6.48 ± 1.43 µM
[10]
  IC50: 10.1 ± 0.86 µM

## CCCCCOC(=O)Nc1nc(=O)n([C@@H]2O[C@H](C)[C@@H](O)[C@H]2O)cc1F [Capecitabine, capecitabine]
[5]; Homo sapiens
  IC50: > 100 µM
[6]; Homo sapiens
  IC50: > 100 µM
[7]; Homo sapiens, 120 h
  IC50: > 133 µM

## O=C(Cc1ccccc1Nc1c(Cl)cccc1Cl)[O][Au][PH](c1ccccc1)(c1ccccc1)c1ccccc1 [complex 4]
[4]; 10 mM, 72 h
  stability in DMSO-d6 (31P{1H} and 1H NMR): unstable in solution
